Data set [1] relates to U937 cells. Description: Spectroscopic measurements in whole and ruptured cells stained with Rh123. The class given is cell-based. On the procedure: There were two main goals to these experiments. The first goal was to ascertain whether a fluorescence intensity decreases in cells treated with CCCP, and similarly, to ascertain whether fluorescence intensity increases in cells treated with Nigericin. The second goal was to learn about the characteristics and amount of influence of the cellular medium on the Rh123 spectroscopic properties.
The cells were stained with Rh123 at a concentration of 3 μM and suspended in PBS, at a cell concentration of 350,000/ml. At this cell concentration, no scattered signal was detected in the fluorescence measurement setup.
The measurement was conducted in CARY spectrofluorometer. The excitation was performed at 480±10 nm and the fluorescence was collected using a 530±10 nm filter. The cell suspension was divided into 4 aliquots in volumes of 2 ml, each. First, the spectrum for all the parts was measured and a comparison was performed to verify equal cell concentration in each quota. Second, parts 3 and 4 were treated with CCCP, while acetone was added to parts 1 and 2, at the same concentration and volume as that in which the CCCP was dissolved, and a spectrum measurement was made. At the end of this process, parts 1 and 3 were ruptured by sonication (VCX 130, Sonics and Materials Inc, Newtown, USA), and parts 2 and 4 were centrifuged and the supernatant was removed to measure the background.
Since there are differences in the emission spectrum of Rh123 in the mitochondria and cytoplasm, the area under the emission graphs must also be calculated in estimating the given spectral effect of CCCP. The area is proportionate to the number of emitting molecules and not to the measured intensity.
Cell preparation and measurement were conducted using the Cary system, and were identical to those with CCCP, except that Nigericin was used for […] the cells.
The overall emission intensity was calculated as above for CCCP to investigate the cause of the fluorescence intensity increase by calculating the area below the emission graph. The columns show average values and standard deviation values of at least two identical experiments. The stars indicate the significant statistical differences before the ANOVA test.

The subject of data set [2] is U937 promonocytic cells. The experiment in a line: Fluorescence lifetime measurements in U937 cells stained with Rh123. It is filed as cell-based. The conditions noted are these: for f1(weight) / α1(decay) / τ1(lifetime): long lifetime component (attributed to cytoplasm); for f2(weight) / α2(decay) / τ2(lifetime): short lifetime component (attributed to mitochondria); for fluorescence signal from the probe located in the mitochondria: weight of the short decay component. On the procedure: Cell treatment: U937 promonocytic cells were treated with an oxidative phosphorylation uncoupler CCCP and Nigericin as described hereinabove.
Cell staining: Cells were stained by treating with Rh123 and loaded in cell chips.
Fluorescence lifetime measurement: Measurements were carried out using polarizers that were set at magic […]. Rh123 was excited by a 488 nm laser line. Fluorescence testing was conducted from 500 nm wavelengths and above (toward the red area).
The results were obtained from an average, encompassing 30 evaluations, with standard deviations recorded accordingly. The outstanding result is the fact that two lifetime groups were obtained, one long—above 4 nanoseconds—and one short—below 3 nanoseconds. In order to determine which region correlates with which lifetime group both the lifetimes and the weights were considered.

For data set [3], the system named is U937 promonocytic cells. The experiment in a line: Fluorescence polarization measurements in U937 cells stained with Rh123. It is filed as cell-based. The note with it: for Mean Polarization: average based on 300 U937 cells stained with Rh123; for Mean Polarization / Mean FP, Left Cell / Mean FP, Right Cell: CCCP 5 μM or Nigericin 5 μg/ml, 15 minutes; for Mean FP, Left Cell / Mean FP, Right Cell: overall polarization of the entire cell, U937 stained with Rh123. On the procedure: Fluorescence polarization (FP) evaluation was conducted using U937 promonocytic cells under the following physiological conditions: control, following treatment with CCCP and following treatment with Nigericin. All the cells were stained with Rh123, rinsed, loaded in cell chips and then measured. Cell treatment: U937 promonocytic cells were treated with an oxidative phosphorylation uncoupler CCCP (commercially available from Sigma-Aldrich) at a concentration of 5 μM and Nigericin (commercially available from Sigma-Aldrich) at 5 μg/ml for 15 minutes. Cell staining: Cells were stained by treating with […] Rh123 and loaded in cell chips. Fluorescence polarization measurement: Transmitted light images and fluorescence images were obtained parallel to the excitation field (excitation and emission polarizers set at 0°), and perpendicular to it, with the excitation polarizer set at 0°, and the emission polarizer set at 90°. From every pair of parallel and perpendicular images, the FP value was calculated for each pixel, using the following equation and a polarization map was created according to the following equation: In order to obtain a calibration reference point, the polarization value was obtained from the entire cell. […] Accordingly, a cell chip was used which allowed defining the borders of the cell by means of images of the cell received through transmitted light photographs. The borders were projected on the polarization map and the FP average was calculated for each cell. This process was implemented to evaluate all the cells, and a general average was obtained for each given physiological state.

Data set [4] deals with mitochondria of U937 cells. The experiment in a line: Mitochondrial membrane potential derived from lifetime decay weights with the Nernst equation. It is filed as cell-based. The note with it: estimated with the f value, Nernst equation at 300° K, VC/VM≅500, U937 cells treated with CCCP. An excerpt:
The following example describes the use of weights ƒ and/or α, decay components, to estimate the probe concentration in the mitochondria and the cytoplasm and from this to derive the membrane potential using the Nernst Equation.
The weight is proportional to the total measured fluorescence signal from an area with a certain fluorescence lifetime. In relying on the results of the measurement, it can be assumed that the decay level in the mitochondria and the cytoplasm is equal and, therefore, is not taken into consideration. In order to convert the weight ratio to concentration ratios, it is necessary to multiply them by the inverted volume ratio, i.e., VC/VM (C-Cytoplasm, M-Mitochondria). Given that this ratio is constant for a certain type of synchronized cells, [data not shown], despite the complex measurement-calculation, it is enough to execute this operation only once.
Considering the Nernst equation at 300° K and the measured fluorescence signal: […]

Data set [5] is described as follows: Direct influence of viscosity (glycerol) on FLT and FP of Rh123 and NAO. It is filed as physicochemical. The conditions noted are these: Rh123 5 μg/ml, NAO 10 μM. On the procedure: In these tests, the fluorescence lifetime τF was also measured along with the rotational decay time τR. For this, Rh123 (5 μg/ml) and suspension NAO (10 μM) were dissolved in three glycerol suspensions (30%, 60% and 80% v/v) in PBS. Each measurement was performed in triplicate.

A short description of data set [6]: Direct influence of pH on the fluorescence lifetime of Rh123 and NAO. The class given is physicochemical. The conditions noted are these: Rh123 5 μg/ml, NAO 10 μM. On the procedure:
The intra-cellular environment is heterogeneous and multi-phased; therefore, changes may occur in the acidity level in different regions in the cell. Measurements were executed, for this reason, to test if the acidic level has any influence on the fluorescence lifetime of the Rh123. The measurements were conducted in a K2 system, in a suspension of Rh123 with a concentration of 13 μM and the suspension of NAO, in a concentration of 10 μM with an acidity level of 6.0, 7.4 and 8.5.

Data set [7] can be described thus: Direct influence of CCCP and Nigericin on emission spectrum, polarization and lifetime of Rh123 in suspension. On the procedure: A suspension of Rh123 at a concentration of 0.5 μg/ml was prepared. The suspension was divided into three aliquots, each containing a volume of 1 ml. To the first part was added 2.5 μl of PBS. To the second part was added 2.5 μl CCCP at a concentration of 2 mM, so that a final concentration of 5 μM CCCP was reached. To the third part was added 2.5 μl of Nigericin, at a concentration of 2 mg/ml, so that a final concentration of 5 μg/ml Nigericin was reached.
In the first stage, the emission spectrum of the suspension was obtained, using CARY ECLIPSE. The suspensions were excited with 480 nm light and the fluorescence was measured between 500-600 nm, while the slits (emission and excitation) were 2.5 nm.
The direct influence of CCCP and/or Nigericin were tested on the same suspensions of Rh123, measuring the lifetimes in contrast to the control.

Values joined by “and” are separate entries in the source; they are usually repeats but may differ in a detail not shown here. Identical values can stand only once.

Regarding `N#CC(C#N)=NNc1cccc(Cl)c1` [CCCP], the “number of fluorescent molecules (overall emission intensity following cell rupture)” value in data set [1] (ruptured U937 cells stained with Rh123, with and without CCCP) is “does not diminish the number of fluorescent molecules”. In data set [1] (supernatant of U937 cells stained with Rh123 following CCCP treatment), the “leakage of the probe (background signal of the suspending solution)” value was “causes leakage from the entire cell”. Moreover, in data set [1] (whole U937 cells stained with Rh123 3 μM, 534 nm before CCCP), the “emission maximum wavelength of intra-cellular Rh123 following activation of CCCP” value was determined as 532 nm. In addition, in data set [2], the “f1(weight)” value is 0.867; the “α1(decay)” value was determined as 0.690 ± 0.105; the “τ1(lifetime)” value was 4.27 nsec and 4.271 ± 0.292 nsec; the “f2(weight)” value is 0.133. Further, in data set [2], the “α2(decay)” value is listed as 0.310 ± 0.100, the “τ2(lifetime)” value stood at 1.475 ± 0.423 nsec and the “fluorescence signal from the probe located in the mitochondria” value was “about 30%”. In addition, in data set [3], the “Mean Polarization” value was found to be 0.346 ± 0.013; the “Mean FP, Left Cell” value stood at 0.343 ± 0.034; the “Mean FP, Right Cell” value is listed as 0.324 ± 0.046. Also, the “Δψ (mitochondrial membrane potential)” value in data set [4] is about −112.84 mV.

Regarding `CCCCCCCCC[n+]1c2cc(N(C)C)ccc2cc2ccc(N(C)C)cc21.[Br-]` [NAO], the results for the FP in data set [5] (Glycerin 30% v/v in PBS), in data set [5] (Glycerin 60% v/v in PBS) and in data set [5] (Glycerin 80% v/v in PBS) were 0.110 ± 0.007, 0.179 ± 0.009 and 0.303 ± 0.004, respectively. In addition, the τF in data set [5] (Glycerin 30% v/v in PBS) is listed as 1.599 ± 0.072 nsec; in data set [5] (Glycerin 60% v/v in PBS) it was 2.081 ± 0.056 nsec; in data set [5] (Glycerin 80% v/v in PBS), 2.556 ± 0.009 nsec. Besides, the “τR (rotational decay time)” value in data set [5] (Glycerin 30% v/v in PBS) was found to be 0.923 ± 0.181 nsec; in data set [5] (Glycerin 60% v/v in PBS), 1.298 ± 0.057 nsec; in data set [5] (Glycerin 80% v/v in PBS) it was 3.888 ± 0.181 nsec. Further, the results for the “Fluorescence life-time τF” value in data set [6] (pH 6.0), in data set [6] (pH 7.4) and in data set [6] (pH 8.5) were 1.086 ± 0.028 nsec, 1.051 ± 0.003 nsec and 1.066 ± 0.006 nsec, respectively.

Regarding `CO[C@@H]1C[C@@H](C[C@H]2CC[C@H](C)[C@H]([C@@H](C)C(=O)O)O2)O[C@]2(O[C@](C)([C@H]3CC[C@@](C)([C@@H]4O[C@@H]([C@H]5O[C@@](O)(CO)[C@H](C)C[C@@H]5C)C[C@@H]4C)O3)C[C@H]2C)[C@@H]1C` [Nigericin], in data set [1] (U937 cells treated prior to rupture, entire emission range), the “overall emission intensity from a suspension of ruptured cells” value was “higher than that received from an untreated cell suspension”. For the same compound, the “overall emission intensity from whole cells” value in data set [1] (whole U937 cells stained with Rh123, complete emission range) is “higher than that of untreated cells”. In data set [2], the “f1(weight)” value was 0.330, the “α1(decay)” value amounted to 0.138 ± 0.048, the “τ1(lifetime)” value is listed as 7.735 ± 0.828 nsec and the “f2(weight)” value was 0.670. Further, in data set [2], the “α2(decay)” value is on record as 0.862 ± 0.030, the “τ2(lifetime)” value is reported as 2.519 ± 0.174 nsec and the “fluorescence signal from the probe located in the mitochondria” value amounted to 86%. Further, the “fluorescence signal from the probe found in the cytoplasm” value in data set [2] (weight of the long decay component) is 14%. Besides, in data set [3], the “Mean Polarization” value was 0.258 ± 0.025; the “Mean FP, Left Cell” value is given as 0.255 ± 0.057; the “Mean FP, Right Cell” value is reported as 0.253 ± 0.048. Further, in data set [3] (polarization map of U937 cells stained with Rh123, compared with control), the “polarization values in the mitochondrial areas” value was “lower”.

As to `COC(=O)c1ccccc1-c1c2ccc(=N)cc-2oc2cc(N)ccc12.Cl` [Rh123], the “lifetime of Rh123 in a water suspension (PBS)” value in data set [7] was about 4.2 nsec. Also, the FP is recorded as 0.090 ± 0.007 in data set [5] (Glycerin 30% v/v in PBS), 0.200 ± 0.005 in data set [5] (Glycerin 60% v/v in PBS) and 0.366 ± 0.010 in data set [5] (Glycerin 80% v/v in PBS). The τF in data set [5] (Glycerin 30% v/v in PBS) amounted to 3.861 ± 0.142 nsec; in data set [5] (Glycerin 60% v/v in PBS) it was 3.536 ± 0.018 nsec; in data set [5] (Glycerin 80% v/v in PBS), 3.500 ± 0.211 nsec. Besides, the “τR (rotational decay time)” value in data set [5] (Glycerin 30% v/v in PBS) is listed as 0.460 ± 0.010 nsec; in data set [5] (Glycerin 60% v/v in PBS), 2.219 ± 0.006 nsec; in data set [5] (Glycerin 80% v/v in PBS), 8.463 ± 0.047 nsec. The “Fluorescence life-time τF” value in data set [6] (pH 6.0) was found to be 4.204 ± 0.064 nsec; in data set [6] (pH 7.4), 4.325 ± 0.007 nsec; in data set [6] (pH 8.5), 4.215 ± 0.037 nsec.

The values are drawn from patent US20100274500A1, “METHOD AND SYSTEM FOR MEASURING MEMBRANE POTENTIAL BASED ON FLUORESCENCE POLARIZATION” (Seng Enterprises Ltd., priority 2006, published 2010).
